In assay [1] the target is T1, sGC α1/β1 heterodimer (Homo sapiens, UniProt Q02108+Q02153).
T1 construct: expressed in transfected cells; host or cells: CHO-K1 (clone #7, CHO-K1/sGC)
T1 sequence (Q02108 1-690): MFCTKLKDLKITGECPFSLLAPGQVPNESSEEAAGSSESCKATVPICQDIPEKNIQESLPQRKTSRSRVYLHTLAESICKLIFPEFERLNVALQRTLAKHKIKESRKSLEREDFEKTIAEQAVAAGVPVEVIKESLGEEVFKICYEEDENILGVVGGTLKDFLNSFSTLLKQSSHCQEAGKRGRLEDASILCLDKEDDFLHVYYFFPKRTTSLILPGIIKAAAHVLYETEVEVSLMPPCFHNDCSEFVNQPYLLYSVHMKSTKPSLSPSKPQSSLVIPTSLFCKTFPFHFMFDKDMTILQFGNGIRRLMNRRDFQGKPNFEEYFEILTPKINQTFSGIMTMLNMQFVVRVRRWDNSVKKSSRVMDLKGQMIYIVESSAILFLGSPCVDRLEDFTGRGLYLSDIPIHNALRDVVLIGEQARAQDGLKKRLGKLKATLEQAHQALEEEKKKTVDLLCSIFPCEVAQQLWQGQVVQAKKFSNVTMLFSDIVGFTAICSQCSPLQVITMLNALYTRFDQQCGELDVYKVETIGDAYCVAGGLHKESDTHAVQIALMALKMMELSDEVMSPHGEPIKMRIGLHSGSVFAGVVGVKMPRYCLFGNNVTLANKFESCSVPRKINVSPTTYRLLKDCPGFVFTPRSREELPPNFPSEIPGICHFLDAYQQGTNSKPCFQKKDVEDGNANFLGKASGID
T1 sequence (Q02153 1-619): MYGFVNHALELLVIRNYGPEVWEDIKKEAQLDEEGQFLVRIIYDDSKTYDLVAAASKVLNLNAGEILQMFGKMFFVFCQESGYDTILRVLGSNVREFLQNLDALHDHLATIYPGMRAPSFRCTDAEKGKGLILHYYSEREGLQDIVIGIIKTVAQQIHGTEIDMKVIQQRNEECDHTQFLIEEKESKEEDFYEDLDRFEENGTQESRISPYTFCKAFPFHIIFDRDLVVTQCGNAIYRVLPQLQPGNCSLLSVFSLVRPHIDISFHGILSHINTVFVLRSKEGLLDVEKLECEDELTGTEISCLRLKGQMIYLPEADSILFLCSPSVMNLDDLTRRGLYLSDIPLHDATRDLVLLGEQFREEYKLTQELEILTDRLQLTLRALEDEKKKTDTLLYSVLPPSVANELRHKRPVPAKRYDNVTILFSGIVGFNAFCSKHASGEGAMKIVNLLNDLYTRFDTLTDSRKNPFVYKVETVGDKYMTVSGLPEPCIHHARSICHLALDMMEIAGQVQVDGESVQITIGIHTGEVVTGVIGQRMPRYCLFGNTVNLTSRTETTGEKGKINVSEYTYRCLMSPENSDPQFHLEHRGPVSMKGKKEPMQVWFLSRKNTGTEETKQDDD
Briefly: Cell-based sGC functional assay (CASA assay): cGMP generation in CHO-K1/sGC cells, HTRF detection. Particulars: for Emax: CHO-K1, percent activation relative to standard Compound A in CHO-K1/sGC cells, read-out: % Act.; for EC50: inflection point (IP) of cGMP generation in CHO-K1/sGC cells, 4P fit, activity expressed as percentage of Compound A. Summed up: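 cGMP was quantified by HTRF after 1 hr, 37° C exposure of thawed CHO-K1 cells expressing sGC α1/β1 to compound, with or without 1 μM DETA-NO. IBMX (0.5 mM) blocked cGMP breakdown, and DMSO was 2.5% final. Percent of standard Compound A's maximal cGMP was fitted (4P) for inflection point.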

Assay [2] deals with Spontaneously hypertensive rats (SHR). Briefly: Acute efficacy in spontaneously hypertensive rats (SHR): telemetry blood pressure lowering after a single oral dose. It is filed as in vivo, rat. Summed up:
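Values are the maximum peak fall in systolic pressure after one oral dose (mpk), computed hourly against baseline from a vehicle dose given the day before. Rats were conscious, male, spontaneously hypertensive, with femoral-aortic telemetry recording 30 s every 10 min, 14 days post-surgery.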

The text below walks through data of patent US9796733B2, “Imidazo-pyrazine derivatives useful as soluble guanylate cyclase activators” (Merck Sharp & Dohme Corp., priority 2014, dated 2017).

`CC1(c2ccc(Cl)cn2)C(=O)Nc2nc(-c3cn4ccnc4c(CCC(F)(F)C(F)(F)F)n3)nc(N)c21` (stereo not drawn) [Example 228A, 4-amino-5-(5-chloropyridin-2-yl)-5-methyl-2-(8-(3,3,4,4,4-pentafluorobutyl)imidazo [1,2-a]pyrazin-6-yl)-5H-pyrrolo[2,3-d]pyrimidin-6(7H)-one]: in assay [1], the Emax is 108% and the EC50 is 20 nM. In assay [2] (P.O. 0.3 mpk), the “Maximum peak decrease of systolic blood pressure (SBP) in SHR, Cat.” value (shortened to “Maximum peak decrease”) is reported as “B (Category B=SBP in SHRs 20-40 mmHg)”.

For the molecule `CC1(c2cccc(F)c2)C(=O)Nc2nc(-c3cn4ccnc4c(CCC(F)(F)C(F)(F)F)n3)nc(N)c21` (stereo not drawn) [Example 231A, 4-amino-5-(3-fluorophenyl)-5-methyl-2-(8-(3,3,4,4,4-pentafluorobutyl)imidazo [1,2-a]pyrazin-6-yl)-5H-pyrrolo[2,3-d]pyrimidin-6(7H)-one], in assay [1], the Emax is 156% and the 50% effective concentration (EC50) is 50 nM. Moreover, in assay [2] (P.O. 0.3 mpk), the “Maximum peak decrease” value is recorded as “A (Category A=SBP in SHRs<20 mmHg)”.

For `CC1(c2ccccc2)C(=O)Nc2nc(-c3cn4ccnc4c(CCC(F)(F)C(F)(F)F)n3)nc(N)c21` (stereo not drawn) [Example 232B, 4-amino-5-methyl-2-(8-(3,3,4,4,4-pentafluorobutyl)imidazo [1,2-a]pyrazin-6-yl)-5-phenyl-5H-pyrrolo[2,3-d]pyrimidin-6(7H)-one], in assay [1], the Emax worked out at 60% and the response was half-maximal at 17 nM (EC50). For the same molecule, the “Maximum peak decrease” value in assay [2] (P.O. 1.0 mpk) is “C (Category C=SBP in SHRs>40 mmHg)”.

As for `Nc1nc(-c2cn3ccnc3c(CCC(F)(F)C(F)(F)F)n2)nc2c1C(c1ccc(F)cc1)(C1CC1)C(=O)N2` (stereo not drawn) [Example 233B, 4-amino-5-cyclopropyl-5-(4-fluorophenyl)-2-(8-(3,3,4,4,4-pentafluorobutyl)imidazo [1,2-a]pyrazin-6-yl)-5H-pyrrolo[2,3-d]pyrimidin-6(7H)-one], in assay [1], the Emax came out at 131% and a half-maximal response (EC50) required 43 nM. Moreover, the “Maximum peak decrease” value in assay [2] (P.O. 0.3 mpk) was “B (Category B=SBP in SHRs 20-40 mmHg)”.

`CC1(c2ccc(OC(F)(F)F)cc2)C(=O)Nc2nc(-c3cn4ccnc4c(CCC(F)(F)C(F)(F)F)n3)nc(N)c21` (stereo not drawn) [Example 234B, 4-amino-5-methyl-2-(8-(3,3,4,4,4-pentafluorobutyl)imidazo [1,2-a]pyrazin-6-yl)-5-(4-(trifluoromethoxy)phenyl)-5H-pyrrolo[2,3-d]pyrimidin-6(7H)-one]: in assay [1], the Emax came out at 105% and the EC50 was 27 nM. For the same molecule, the “Maximum peak decrease” value in assay [2] (P.O. 0.3 mpk) is “A (Category A=SBP in SHRs<20 mmHg)”.

`Nc1nc(-c2cn3ccnc3c(CCC(F)(F)C(F)(F)F)n2)nc2c1C(c1ccc(Cl)cc1)(C1CC1)C(=O)N2` (stereo not drawn) [Example 235B, 4-amino-5-(4-chlorophenyl)-5-cyclopropyl-2-(8-(3,3,4,4,4-pentafluorobutyl)imidazo [1,2-a]pyrazin-6-yl)-5H-pyrrolo[2,3-d]pyrimidin-6(7H)-one]: in assay [1], the Emax is 148% and a half-maximal response (EC50) required 36 nM. In addition, the “Maximum peak decrease” value in assay [2] (P.O. 0.3 mpk) was “B (Category B=SBP in SHRs 20-40 mmHg)”.

In the case of `CC1(c2ccc(Cl)cc2)C(=O)Nc2nc(-c3cn4ccnc4c(CCC(F)(F)C(F)(F)F)n3)nc(N)c21` (stereo not drawn) [Example 238A, 4-amino-5-(4-chlorophenyl)-5-methyl-2-(8-(3,3,4,4,4-pentafluorobutyl)imidazo [1,2-a]pyrazin-6-yl)-5H-pyrrolo[2,3-d]pyrimidin-6(7H)-one], in assay [1], the Emax is 131% and the concentration giving a half-maximal response (EC50) worked out at 71 nM. In assay [2] (P.O. 0.3 mpk), the “Maximum peak decrease” value is on record as “C (Category C=SBP in SHRs>40 mmHg)”.

On to `CCC1(c2ccc(F)cc2)C(=O)Nc2nc(-c3cn4ccnc4c(CCC(F)(F)C(F)(F)F)n3)nc(N)c21` (stereo not drawn) [Example 239A, 4-amino-5-ethyl-5-(4-fluorophenyl)-2-(8-(3,3,4,4,4-pentafluorobutyl)imidazo [1,2-a]pyrazin-6-yl)-5H-pyrrolo[2,3-d]pyrimidin-6(7H)-one], for which, in assay [1], the Emax is 97% and the 50% effective concentration (EC50) turned out to be 53 nM. Moreover, the “Maximum peak decrease” value in assay [2] (P.O. 0.3 mpk) is listed as “B (Category B=SBP in SHRs 20-40 mmHg)”.

As to `CC1(c2ccc(C3CC3)nc2)C(=O)Nc2nc(-c3cn4ccnc4c(CCC(F)(F)C(F)(F)F)n3)nc(N)c21` (stereo not drawn) [Example 240B, 4-amino-5-(6-cyclopropylpyridin-3-yl)-5-methyl-2-(8-(3,3,4,4,4-pentafluorobutyl)imidazo [1,2-a]pyrazin-6-yl)-5H-pyrrolo[2,3-d]pyrimidin-6(7H)-one], in assay [1], the Emax was 105% and the EC50 was 53 nM. Also, the “Maximum peak decrease” value in assay [2] (P.O. 1.0 mpk) is on record as “A (Category A=SBP in SHRs<20 mmHg)”.

Turning to `CCc1ccc(C2(C)C(=O)Nc3nc(-c4cn5ccnc5c(CCC(F)(F)C(F)(F)F)n4)nc(N)c32)cn1` (stereo not drawn) [Example 243B, 4-amino-5-(6-ethylpyridin-3-yl)-5-methyl-2-(8-(3,3,4,4,4-pentafluorobutyl)imidazo [1,2-a]pyrazin-6-yl)-5H-pyrrolo[2,3-d]pyrimidin-6(7H)-one], in assay [1], the Emax is 106% and the EC50 worked out at 208 nM. In addition, the “Maximum peak decrease” value in assay [2] (P.O. 1.0 mpk) is recorded as “A (Category A=SBP in SHRs<20 mmHg)”.

As for `CCOc1ccc(C2(C)C(=O)Nc3nc(-c4cn5ccnc5c(CCC(F)(F)C(F)(F)F)n4)nc(N)c32)cn1` (stereo not drawn) [Example 244B, 4-amino-5-(6-ethoxypyridin-3-yl)-5-methyl-2-(8-(3,3,4,4,4-pentafluorobutyl)imidazo [1,2-a]pyrazin-6-yl)-5H-pyrrolo[2,3-d]pyrimidin-6(7H)-one], in assay [1], the Emax is 109% and the response was half-maximal at 81 nM (EC50). The “Maximum peak decrease” value in assay [2] (P.O. 3.0 mpk) is “C (Category C=SBP in SHRs>40 mmHg)”.

As to `Nc1nc(-c2cn3ccnc3c(CCC(F)(F)C(F)(F)F)n2)nc2c1C(c1ccc(Cl)cn1)(C1CC1)C(=O)N2` (stereo not drawn) [Example 245B, 4-amino-5-(5-chloropyridin-2-yl)-5-cyclopropyl-2-(8-(3,3,4,4,4-pentafluorobutyl)imidazo [1,2-a]pyrazin-6-yl)-5H-pyrrolo[2,3-d]pyrimidin-6(7H)-one], in assay [1], the Emax is 118% and it took 77 nM to reach a half-maximal effect (EC50). The “Maximum peak decrease” value in assay [2] (P.O. 1.0 mpk) was “C (Category C=SBP in SHRs>40 mmHg)”.

As for `CC1(c2ccc(F)cn2)C(=O)Nc2nc(-c3cn4ccnc4c(CCC(F)(F)C(F)(F)F)n3)nc(N)c21` (stereo not drawn) [Example 246B, 4-amino-5-(5-fluoropyridin-2-yl)-5-methyl-2-(8-(3,3,4,4,4-pentafluorobutyl)imidazo [1,2-a]pyrazin-6-yl)-5H-pyrrolo[2,3-d]pyrimidin-6(7H)-one], in assay [1], the Emax was 114% and a half-maximal effect (EC50) was put at 128 nM. In assay [2] (P.O. 1.0 mpk), the “Maximum peak decrease” value is on record as “B (Category B=SBP in SHRs 20-40 mmHg)”.

Turning to `CCC1(c2ccc(Cl)cc2)C(=O)Nc2nc(-c3cn4ccnc4c(CCC(F)(F)C(F)(F)F)n3)nc(N)c21` (stereo not drawn) [Example 247B, 4-amino-5-(4-chlorophenyl)-5-ethyl-2-(8-(3,3,4,4,4-pentafluorobutyl)imidazo [1,2-a]pyrazin-6-yl)-5H-pyrrolo[2,3-d]pyrimidin-6(7H)-one], in assay [1], the Emax amounted to 117% and the midpoint of the response, the EC50, lay at 152 nM. Moreover, the “Maximum peak decrease” value in assay [2] (P.O. 0.3 mpk) is given as “A (Category A=SBP in SHRs<20 mmHg)”.
